We go through one compound from patent publication US11253594B2, “Drug combinations for protecting against neuronal cell death” (UNIVERSITY OF PITTSBURGH-OF THE COMMONWEALTH SYSTEM OF …, priority 2017, dated 2022).

For the assay, the system named is STHdh^Q111 cells. In words: 384-well PI (propidium iodide) assay, protection from mHTT induced cell death. It is filed as cell-based, mouse. The note with it: FIG. 10. Here is the method: The well-established STHdh^Q111 cell model for HD was employed to identify compounds that can protect neuronal cells from mHTT-dependent cell death. […] The propidium iodide (PI) readout enables an unbiased assessment of cell death by measuring an irreversible step that is common to all cytotoxic mechanisms.
The stress conditions for testing compounds involved incubation of the cells in serum-free medium at 37° C. and 5% CO2.
Prior to compound treatment, medium was removed and the cells washed once with PBS (pH=7.4) after which 45 μl of complete medium was added. Compounds in 5 μl complete medium were added to cells. […] Compounds in serum free medium (5 μl) were added and cells were incubated at 37° C. and 5% CO2.
Image analysis was carried out using the Multiwavelength Cell Scoring application in the MetaXpress software. The nuclear compartment was identified in Ch1 with a threshold intensity of 2,000 above background and the Texas Red compartment was identified in Ch2 with a threshold intensity of 20,000 above background.
For the analyses presented here the Percent Recovery was calculated from the Percent PI positive cells by:
[formula] where positive controls are the STHdh^Q7 cells, and negative controls are the STHdh^Q111 cells treated with DMSO
The LOPAC library was screened in the 384-well PI assay at 30, 10, and 3 μM.

Molecules are shown by their SMILES.

In the case of `CCOc1ccc2nc(S(C)(=O)=O)sc2c1` [methyl sulfonyl analog of ETX, 6-ethoxy-2-(methylsulfonyl) benzo[d]thiazole], the “efficacy relative to ethoxzolamide” value was “equally efficacious”. Where the note is “maximal protection”, the “STHdh^Q111 cells protected” value is on record as about 50%. Besides, the “potency in protecting STHdh^Q111 cells relative to ETX” value (propidium iodide assay) is on record as 7 fold.
